Where a name gives a salt, the structure may show the parent alone.
Test: Gait monitoring, four-grade scale of behavioral and motor changes
Format: in vivo, sheep
Parameters: key: Grade 0: animal standing, sheep is able to rise and ambulate without any difficulty; Grade 1: Shuffling of either rear leg or slight limp; slight distortion of normal spinal axis; Grade 2: Loss of righting reflex in one of the rear legs, sheep able to stand without assistance, but with some difficulty; Grade 3: Inability to maintain standing posture; attempts to help animal stand are unsuccessful
Conditions: day (1-43)
Description: Daily rectal temperatures were taken and any behavioral/motor changes were noted. Gait monitoring will be conducted as described below based on a four-grade scale for the evaluation of behavioral and motor changes. Grade 0: animal standing, sheep is able to rise and ambulate without any difficulty. Grade 1: Shuffling of either rear leg or slight limp; slight distortion of normal spinal axis. Grade 2: Loss of righting reflex in one of the rear legs, sheep able to stand without assistance, but with some difficulty. Grade 3: Inability to maintain standing posture; attempts to help animal stand are unsuccessful.

Measured: Gait Normal 0

Cc1ncc2n1-c1ccc(Cl)cc1C(c1ccccc1F)=NC2 [Midazolam, midazolam hydrochloride]
0: double blinded sheep Chicken Hawk #87, 5 mg/day intrathecal infusion | double blinded sheep Elmer Fudd #437, 5 mg/day intrathecal infusion | double blinded sheep Leghorn II #815, 15 mg/day intrathecal infusion | double blinded sheep Petunia #439, 15 mg/day intrathecal infusion | double blinded sheep Porky #402, 5 mg/day intrathecal infusion | double blinded sheep Roadrunner #84, 15 mg/day intrathecal infusion | open label sheep #457 Tazz, 15 mg/day intrathecal infusion | open label sheep #498 Toad, 10 mg/day intrathecal infusion | open label sheep #518 Sandy, 5 mg/day intrathecal infusion | open label sheep Dot #85, 15 mg/day intrathecal infusion | open label sheep Wacko #83, 15 mg/day intrathecal infusion | open label sheep Yacko #91, 15 mg/day intrathecal infusion
